According to patent US20050113296A1, “Methods for identifying antimicrobial agents, the agents identified therewith and methods of using same” (priority 2001, published 2005):

Target: T1, E. coli yfhC polypeptide (Escherichia coli, UniProt P68398)
T1 construct: made in house; negative controls used a pBAD-derived vector
Assay: yfhC polypeptide deamination of a defined substrate, inosine monitored by HPLC of the digest
Format: biochemical
Conditions: 2 μg yfhC polypeptide (cell lysate), 20 μg stem loop or 8 μg tRNA^Arg2, 50 μl, 30 min
Description: The experimental protocol consisted of two steps. First an in vitro reaction was conducted using a defined yfhC substrate and the yfhC polypeptide supplied as a lysate from an over-producing strain of bacteria. The reactions were then digested enzymatically to mononucleotides with a mixture of three enzymes (nuclease P1, snake venom phosphodiesterase and alkaline phosphatase and the resultant digest analyzed by HPLC to monitor for the appearance of inosine (the product of the yfhC polypeptide deamination reaction).
In this experiment, a series of reactions were run with a synthetic RNA corresponding to the following anticodon stem loop 17-mer of E. coli tRNA^Arg2, in both the linear and folded form (the anticodon is underlined):
All reactions were carried out with the indicated amounts of yfhC substrate and yfhC polypeptide (in the form of a cell lysate) in a final volume of 50 μl. For experiments employing refolded yfhC substrate, the substrate was first boiled and slowly cooled in refolding buffer (30 mM HEPES, pH 7.9, 150 mM NaCl, 10 mM Mg Cl2) prior to adding to the reaction mixture. […] The pellets were resuspended in 50 μl H2O, digested with a mixture of nuclease P1, snake venom phosphodiesterase 1 and alkaline phosphatase (all enzymes in excess) and analyzed by HPLC (Develosil C-30 column, 2 mm×250 mm; Nomura Chemical, Japan). […]

T1 sequence (P68398 whole entry): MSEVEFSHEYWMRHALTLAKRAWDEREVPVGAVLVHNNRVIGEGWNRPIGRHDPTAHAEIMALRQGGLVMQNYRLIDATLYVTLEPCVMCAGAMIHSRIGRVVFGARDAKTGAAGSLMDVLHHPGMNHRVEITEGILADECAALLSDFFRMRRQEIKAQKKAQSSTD

## stem loop: synthetic RNA 17-mer corresponding to the anticodon stem loop of E. coli tRNA^Arg2, linear and refolded; yfhC substrate (CNCGGCNACGAACCGAG; RNA, backbone, methylation of C and the base at N not given here; n positions are unspecified nucleotides, further chemistry not fully specified)
  activity as yfhC substrate (inosine peak in HPLC elution profile): greatest-activity
